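Values below derive from 48-hour exposures of cells grown in 96-well plates, with endpoints linearly interpolated between the two concentrations bracketing the appropriate inhibition level. GI50 = concentration required for 50% inhibition of growth.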 The source made the active and inactive calls. No stated cut-off is given here; in the data, active = GI50 up to about 1.1 µM and inactive = higher.
Experiments:
Test in all cases: growth of human tumour cells (NCI), 48 h
CAKI-1 = test system: CAKI-1
SNB-75 = test system: SNB-75
NCI-H226 = test system: NCI-H226
M14 = test system: M14
IGROV-1 = test system: IGROV-1
SK-MEL-2 = test system: SK-MEL-2
UACC-62 = test system: UACC-62
SNB-19 = test system: SNB-19
A498 = test system: A498
LOX IMVI = test system: LOX IMVI
NCI-H23 = test system: NCI-H23
SK-MEL-5 = test system: SK-MEL-5
SF-539 = test system: SF-539
MOLT-4 = test system: MOLT-4
SF-268 = test system: SF-268
DU-145 = test system: DU-145
PC-3 = test system: PC-3
UACC-257 = test system: UACC-257
SR = test system: SR
OVCAR-4 = test system: OVCAR-4
NCI/ADR-RES = test system: NCI/ADR-RES
HOP-92 = test system: HOP-92
RPMI-8226 = test system: RPMI-8226
HT-29 = test system: HT-29
MDA-MB-231 = test system: MDA-MB-231
Malme-3M = test system: Malme-3M
A549 = test system: A549
KM12 = test system: KM12
HL-60 = test system: HL-60
K562 = test system: K562
COLO 205 = test system: COLO 205
U-251 = test system: U-251
HCT-15 = test system: HCT-15
SK-OV-3 = test system: SK-OV-3
OVCAR-5 = test system: OVCAR-5
NCI-H522 = test system: NCI-H522
RXF 393 = test system: RXF 393
OVCAR-3 = test system: OVCAR-3
HOP-62 = test system: HOP-62
SW-620 = test system: SW-620
NCI-H460 = test system: NCI-H460
ACHN = test system: ACHN
MDA-N = test system: MDA-N
SN12C = test system: SN12C
SF-295 = test system: SF-295
SK-MEL-28 = test system: SK-MEL-28
BT-549 = test system: BT-549
HCC 2998 = test system: HCC 2998
786-0 = test system: 786-0
CCRF-CEM = test system: CCRF-CEM
TK-10 = test system: TK-10
UO-31 = test system: UO-31
HCT-116 = test system: HCT-116
T47D = test system: T47D
Hs-578T = test system: Hs-578T

Q: For `CS(=O)(=O)c1ccc(NNc2cc(=O)[nH]c(=O)[nH]2)cc1`, which GI50 (CAKI-1) is on record?
A: > 10 µM (inactive)

Q: What about the GI50 (SNB-75) of the same compound?
A: > 100 µM (inactive)

Q: What about the GI50 (NCI-H226) of the same compound?
A: > 100 µM (inactive)

Q: And the GI50 (M14)?
A: > 100 µM (inactive)

Q: What about the GI50 (IGROV-1) of the same compound?
A: > 100 µM (inactive)

Q: What about the GI50 (SK-MEL-2) of the same compound?
A: > 100 µM (inactive)

Q: And the GI50 (UACC-62)?
A: > 100 µM (inactive)

Q: And the GI50 (SNB-19)?
A: > 100 µM (inactive)

Q: What about the GI50 (A498) of the same compound?
A: > 100 µM (inactive)

Q: And the GI50 (LOX IMVI)?
A: > 100 µM (inactive)

Q: And the GI50 (NCI-H23)?
A: > 100 µM (inactive)

Q: And the GI50 (SK-MEL-5)?
A: > 100 µM (inactive)

Q: What about the GI50 (SF-539) of the same compound?
A: > 100 µM (inactive)

Q: And the GI50 (MOLT-4)?
A: > 100 µM (inactive)

Q: What about the GI50 (SF-268) of the same compound?
A: > 100 µM (inactive)

Q: And the GI50 (DU-145)?
A: > 100 µM (inactive)

Q: What about the GI50 (PC-3) of the same compound?
A: > 100 µM (inactive)

Q: What about the GI50 (UACC-257) of the same compound?
A: > 100 µM (inactive)

Q: What about the GI50 (SR) of the same compound?
A: > 100 µM (inactive)

Q: And the GI50 (OVCAR-4)?
A: > 100 µM (inactive)

Q: What about the GI50 (NCI/ADR-RES) of the same compound?
A: > 100 µM (inactive)

Q: What about the GI50 (HOP-92) of the same compound?
A: 47.8 µM (inactive)

Q: And the GI50 (RPMI-8226)?
A: > 100 µM (inactive)

Q: And the GI50 (HT-29)?
A: > 100 µM (inactive)

Q: What about the GI50 (MDA-MB-231) of the same compound?
A: > 100 µM (inactive)

Q: And the GI50 (Malme-3M)?
A: > 100 µM (inactive)

Q: What about the GI50 (A549) of the same compound?
A: > 100 µM (inactive)

Q: What about the GI50 (KM12) of the same compound?
A: > 100 µM (inactive)

Q: What about the GI50 (HL-60) of the same compound?
A: 52.7 µM (inactive)

Q: And the GI50 (K562)?
A: > 100 µM (inactive)

Q: What about the GI50 (COLO 205) of the same compound?
A: > 100 µM (inactive)

Q: And the GI50 (U-251)?
A: > 100 µM (inactive)

Q: And the GI50 (HCT-15)?
A: > 100 µM

Q: What about the GI50 (SK-OV-3) of the same compound?
A: > 100 µM (inactive)

Q: And the GI50 (OVCAR-5)?
A: > 100 µM (inactive)

Q: What about the GI50 (NCI-H522) of the same compound?
A: 21.7 µM (inactive)

Q: And the GI50 (RXF 393)?
A: > 100 µM (inactive)

Q: And the GI50 (OVCAR-3)?
A: > 100 µM (inactive)

Q: What about the GI50 (HOP-62) of the same compound?
A: > 100 µM (inactive)

Q: And the GI50 (SW-620)?
A: > 100 µM (inactive)

Q: And the GI50 (NCI-H460)?
A: > 100 µM (inactive)

Q: And the GI50 (ACHN)?
A: > 100 µM (inactive)

Q: What about the GI50 (MDA-N) of the same compound?
A: > 100 µM (inactive)

Q: And the GI50 (SN12C)?
A: > 100 µM (inactive)

Q: What about the GI50 (SF-295) of the same compound?
A: > 100 µM (inactive)

Q: And the GI50 (SK-MEL-28)?
A: > 100 µM (inactive)

Q: What about the GI50 (BT-549) of the same compound?
A: > 100 µM (inactive)

Q: And the GI50 (HCC 2998)?
A: > 100 µM (inactive)

Q: And the GI50 (786-0)?
A: > 100 µM (inactive)

Q: And the GI50 (CCRF-CEM)?
A: > 100 µM (inactive)

Q: And the GI50 (TK-10)?
A: 0.0155 µM (active)

Q: What about the GI50 (UO-31) of the same compound?
A: > 100 µM (inactive)

Q: What about the GI50 (HCT-116) of the same compound?
A: > 100 µM (inactive)

Q: And the GI50 (T47D)?
A: > 100 µM (inactive)

Q: And the GI50 (Hs-578T)?
A: > 100 µM (inactive)
